Reference: EP1215212A2, “Dihydro derivatives of LL-E33288 antibiotics” (priority 1987, dated 1988)

What was measured:
Format in all cases: cell-based
[1] = test system: E. coli-lambda lysogen; test: Biochemical Induction Assay (BIA), modified; settings: ability to directly or indirectly initiate DNA damage
From the text: The LL-E33288 antibiotics are active against gram-positive and gram-negative bacteria. Each of the components were also found to be active in a modification of the Biochemical Induction Assay [Elespuru, R. and Yarmolinsky, M., Environmental Mutagenesis, 1, 65-78 […]], a test which specifically measures the ability of an agent to directly or indirectly initiate DNA damage. In this assay, both LL-E33288γ1-I and LL-E33288δ1-I were active at concentrations lower than 1x10^-6 mcg/ml.
This pseudoaglycone is also active as an antitumor agent as determined in the Biochemical Induction Assay (BIA), a bacterial assay system which specifically measures the ability of an agent to directly or indirectly initiate DNA damage. The indicator organism for this test is an E. coli-lambda lysogen, genetically constructed such that a DNA damaging event results in the expression of the gene for the enzyme β-galactosidase. This enzyme can be determined qualitatively or quantitatively by biochemical assay as an indication that DNA damage has occurred.
A modified version of the quantitative liquid BIA disclosed by Elespuru, R. and Yarmolinsky, M., Environmental Mutagenesis, 1, 65 (1979) was used to evaluate these compounds.

[2] = test system: Morganella morganii; test: Agar dilution MIC (Table II); settings: Morganella morganii IO 83-18; inoculum 1 to 5 x 10^4 CFU; about 18 hours, 35°C
Description: (§1) The in vitro antibacterial activity of dihydro LL-E33288gamma l-I was determined against a spectrum of gram-positive and gram-negative bacteria by a standard agar dilution method. Mueller-Hinton agar containing two-fold decreasing concentrations of the antibiotics was poured into petri plates. The agar surfaces were inoculated with 1 to 5 x 10^4 colony forming units of bacteria by means of a Steers replicating device.

[3] = test system: Acinetobacter sp; test: Agar dilution MIC (Table II); settings: inoculum 1 to 5 x 10^4 CFU, about 18 hours, 35°C
Description: as §1

[4] = test system: Enterobacter cloacae; test: Agar dilution MIC (Table II); settings: Enterobacter cloacae CMC 84-4; inoculum 1 to 5 x 10^4 CFU; about 18 hours, 35°C
Description: as §1

[5] = test system: Staphylococcus epidermidis; test: Agar dilution MIC (Table II); settings: inoculum 1 to 5 x 10^4 CFU, about 18 hours, 35°C
Description: as §1

[6] = test system: Klebsiella pneumoniae; test: Agar dilution MIC (Table II); settings: inoculum 1 to 5 x 10^4 CFU, about 18 hours, 35°C
Description: as §1

[7] = test system: Escherichia coli; test: Agar dilution MIC (Table II); settings: inoculum 1 to 5 x 10^4 CFU, about 18 hours, 35°C
Description: as §1

[8] = test system: Pseudomonas aeruginosa; test: Agar dilution MIC (Table II); settings: inoculum 1 to 5 x 10^4 CFU, about 18 hours, 35°C
Description: as §1

[9] = test system: Citrobacter diversus; test: Agar dilution MIC (Table II); settings: Citrobacter diversus K-82-24; inoculum 1 to 5 x 10^4 CFU; about 18 hours, 35°C
Description: as §1

[10] = test system: Providencia stuartii; test: Agar dilution MIC (Table II); settings: Providencia stuartii CMC 83-82; inoculum 1 to 5 x 10^4 CFU; about 18 hours, 35°C
Description: as §1

[11] = test system: Staphylococcus aureus; test: Agar dilution MIC (Table II); settings: inoculum 1 to 5 x 10^4 CFU, about 18 hours, 35°C
Description: as §1

[12] = test system: Citrobacter freundii; test: Agar dilution MIC (Table II); settings: Citrobacter freundii IO 83-13; inoculum 1 to 5 x 10^4 CFU; about 18 hours, 35°C
Description: as §1

[13] = test system: Enterobacter aerogenes; test: Agar dilution MIC (Table II); settings: Enterobacter aerogenes IO 83-44; inoculum 1 to 5 x 10^4 CFU; about 18 hours, 35°C
Description: as §1

[14] = test system: Serratia marcescens; test: Agar dilution MIC (Table II); settings: inoculum 1 to 5 x 10^4 CFU, about 18 hours, 35°C
Description: as §1

[15] = test system: Streptococcus faecalis; test: Agar dilution MIC (Table II); settings: inoculum 1 to 5 x 10^4 CFU, about 18 hours, 35°C
Description: as §1

CCN[C@H]1CO[C@@H](O[C@H]2[C@H](O[C@H]3C#CC=CC#C[C@@]4(O)CC(=O)C(NC(=O)OC)=C3/C4=C\CSSSC)O[C@H](C)[C@@H](NO[C@H]3C[C@H](O)[C@H](SC(=O)c4c(C)c(I)c(O[C@@H]5O[C@@H](C)[C@H](O)[C@@H](OC)[C@H]5O)c(OC)c4OC)[C@@H](C)O3)[C@@H]2O)C[C@@H]1OC (stereo in doubt) [LL-E33288γ1-I]
active at concentrations [1]: lower than 1x10^-6 mcg/ml

Dihydro-LL-E33288γ1-I [Dihydro-LL-E33288gamma1-I]
Minimal Inhibitory Concentration [2]: 1 µg/mL | Minimal Inhibitory Concentration ([3]; Acinetobacter sp CMC 83-89): 2 µg/mL | Minimal Inhibitory Concentration ([3]; Acinetobacter sp IO 83-49): >2 µg/mL | Minimal Inhibitory Concentration [4]: 2 µg/mL | Minimal Inhibitory Concentration ([5]; Staphylococcus epidermidis ATCC 12228): 0.015 µg/mL | Minimal Inhibitory Concentration ([5]; Staphylococcus epidermidis CMC 83-133): 0.015 µg/mL | Minimal Inhibitory Concentration ([6]; Klebsiella pneumoniae AD(MP)): 1 µg/mL | Minimal Inhibitory Concentration ([6]; Klebsiella pneumoniae CMC 84-5): >2 µg/mL | Minimal Inhibitory Concentration ([7]; Escherichia coli ATCC 25922): 1 µg/mL | Minimal Inhibitory Concentration ([7]; Escherichia coli CMC 84-11): 2 µg/mL | Minimal Inhibitory Concentration ([7]; Escherichia coli No. 311(MP)): 2 µg/mL | Minimal Inhibitory Concentration ([8]; Pseudomonas aeruginosa 12-4-4(MP)): 2 µg/mL | Minimal Inhibitory Concentration ([8]; Pseudomonas aeruginosa ATCC 27853): 2 µg/mL | Minimal Inhibitory Concentration [9]: 2 µg/mL | Minimal Inhibitory Concentration [10]: 2 µg/mL | Minimal Inhibitory Concentration ([11]; Staphylococcus aureus ATCC 25923): 0.06 µg/mL | Minimal Inhibitory Concentration ([11]; Staphylococcus aureus SSC 82-20): 0.06 µg/mL | Minimal Inhibitory Concentration ([11]; Staphylococcus aureus SSC 82-21): 0.004 µg/mL | Minimal Inhibitory Concentration ([11]; Staphylococcus aureus SSC 82-23): 0.008 µg/mL | Minimal Inhibitory Concentration ([11]; Staphylococcus aureus SSC 82-24): 0.002 µg/mL | Minimal Inhibitory Concentration ([11]; Staphylococcus aureus SSC 82-54): 0.06 µg/mL | Minimal Inhibitory Concentration ([11]; Staphylococcus aureus Smith(MP)): 0.004 µg/mL | Minimal Inhibitory Concentration [12]: 2 µg/mL | Minimal Inhibitory Concentration [13]: 2 µg/mL | Minimal Inhibitory Concentration ([14]; Serratia marcescens CMC 83-27): 2 µg/mL | Minimal Inhibitory Concentration ([14]; Serratia marcescens F-35(MP)): 2 µg/mL | Minimal Inhibitory Concentration ([15]; Streptococcus faecalis ATCC 29212): 0.001 µg/mL | Minimal Inhibitory Concentration ([15]; Streptococcus faecalis CMC 83-53): 0.015 µg/mL | Minimal Inhibitory Concentration ([15]; Streptococcus faecalis IO 83-28): 0.015 µg/mL
